What was measured:
Format in all cases: in vivo
wheat = experiment: Test Example 5: effect on crop by foliage application, plastic box (symbol e); details: 320 g/ha, 3 weeks after application
Outline: (§1)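 Foliage-application test plants come from spot sowing in sterilized diluvial soil under a soil layer of about 1.5 cm, grown at 25° C. to 30° C. in a greenhouse.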

Monochoria vaginalis = experiment: Test Example 1: herbicidal activity, application before weed generation in submerged conditions (symbol C); details: application herbicide amount 320 g/ha
Outline: (§2)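 Paddy pre-emergence test. Formulated emulsion, water-diluted to a predetermined rate, is applied to floodwater on sowing day; rice transplanted at 2.5 leaves. Effect read at 3 weeks on a 0–5 herbicidal-ratio scale.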

Leptochloa chinensis = experiment: Test Example 3: herbicidal effect by foliage application, Wagner pot (symbol D); details: application herbicide amount 320 g/ha
Outline: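 In a shallow-flooded alluvial soil system held at 25–30 °C, plants including rice grew for 14 days and were then sprayed over the foliage with emulsion diluted to a fixed herbicide amount. Visual rating followed at 3 weeks.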

[1] = test system: Echinochloa crus-galli var. crus-galli; experiment: Test Example 4: herbicidal effect by soil treatment (symbol H); details: application herbicide amount 320 g/ha
Outline: (§3)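 Seeds were sown in sterilized diluvial soil, covered with about 1.5 cm of soil, and the soil surface was sprayed with a water-diluted emulsion of the compound at a predetermined rate. Plants grew in a greenhouse at 25° C. to 30° C.; effects were scored visually 3 weeks after application.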

Scirpus juncoides = experiment: Test Example 1: herbicidal activity, application before weed generation in submerged conditions (symbol B); details: application herbicide amount 320 g/ha
Outline: as §2

corn = experiment: Test Example 4: effect on crop by soil treatment (symbol c); details: application herbicide amount 320 g/ha
Outline: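 Greenhouse culture at 25° C. to 30° C. followed sowing of seed in spots on sterilized diluvial soil with a soil cover close to 1.5 cm thick.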

Setaria viridis [2] = experiment: Test Example 4: herbicidal effect by soil treatment (symbol G); details: application herbicide amount 320 g/ha
Outline: as §3

Galium spurium = experiment: Test Example 5: herbicidal effect by foliage application, plastic box (symbol Q); details: 320 g/ha, 3 weeks after application
Outline: (§4)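 Visual herbicidal score, taken three weeks post-application, of seedlings sprayed on the foliage with water-diluted emulsion at a predetermined amount; plants were 14 days old, greenhouse-raised at 25° C. to 30° C.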

Alopecurus myosuroides = experiment: Test Example 5: herbicidal effect by foliage application, plastic box (symbol J); details: 320 g/ha, 3 weeks after application
Outline: as §4

rapeseed [3] = experiment: Test Example 4: effect on crop by soil treatment (symbol g); details: application herbicide amount 320 g/ha
Outline: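 Grown at 25° C. to 30° C. in a greenhouse, the crops came from seed sown spot-wise in sterilized diluvial soil under roughly 1.5 cm of covering soil.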

Stellaria media [4] = experiment: Test Example 4: herbicidal effect by soil treatment (symbol P); details: application herbicide amount 320 g/ha
Outline: as §3

Stellaria media [5] = experiment: Test Example 5: herbicidal effect by foliage application, plastic box (symbol P); details: 320 g/ha, 3 weeks after application
Outline: as §4

Amaranthus retroflexus = experiment: Test Example 4: herbicidal effect by soil treatment (symbol N); details: application herbicide amount 320 g/ha
Outline: as §3

rapeseed [6] = experiment: Test Example 5: effect on crop by foliage application, plastic box (symbol g); details: 320 g/ha, 3 weeks after application
Outline: as §1

Setaria viridis [7] = experiment: Test Example 5: herbicidal effect by foliage application, plastic box (symbol G); details: 320 g/ha, 3 weeks after application
Outline: as §4

Lolium multiflorum Lam. = experiment: Test Example 4: herbicidal effect by soil treatment (symbol K); details: application herbicide amount 320 g/ha
Outline: as §3

[8] = test system: Echinochloa crus-galli var. crus-galli; experiment: Test Example 5: herbicidal effect by foliage application, plastic box (symbol H); details: 320 g/ha, 3 weeks after application
Outline: as §4

Apera spica-venti = experiment: Test Example 4: herbicidal effect by soil treatment (symbol L); details: application herbicide amount 320 g/ha
Outline: as §3

SMILES | e: wheat, effect on crop grade (wheat) | Herbicidal effect grade, C: Monochoria vaginalis (Monochoria vaginalis) | herbicidal effect on D (Leptochloa chinensis), grade 0-5 (Leptochloa chinensis) | H (Echinochloa crus-galli var. crus-galli) herbicidal effect grade [1] | Herbicidal effect grade, B: Scirpus juncoides (Scirpus juncoides) | c (corn) effect on crop grade (corn) | G (Setaria viridis) herbicidal effect grade (Setaria viridis [2]) | Q: Galium spurium, herbicidal effect grade (Galium spurium) | J: Alopecurus myosuroides, herbicidal effect grade (Alopecurus myosuroides) | g (rapeseed) effect on crop grade (rapeseed [3]) | P (Stellaria media) herbicidal effect grade (Stellaria media [4]) | P: Stellaria media, herbicidal effect grade (Stellaria media [5]) | N (Amaranthus retroflexus) herbicidal effect grade (Amaranthus retroflexus) | g: rapeseed, effect on crop grade (rapeseed [6]) | G: Setaria viridis, herbicidal effect grade (Setaria viridis [7]) | K (Lolium multiflorum Lam.) herbicidal effect grade (Lolium multiflorum Lam.) | H: Echinochloa crus-galli var. crus-galli, herbicidal effect grade [8] | L (Apera spica-venti) herbicidal effect grade (Apera spica-venti)
COCCON=C(C)CC1CC(O)=C(c2c(C)cc(C)cc2C)C1=O (stereo not drawn) [1-041] | 5 (Herbicidal ratio of 90% or more (almost completely withered)) | 0 (Herbicidal ratio of 5% or lower (almost no effect)) | 5 (Herbicidal ratio of 90% or more (almost completely withered)) | 5 (Herbicidal ratio of 90% or more (almost completely withered)) | 5 (Herbicidal ratio of 90% or more (almost completely withered)) | 4 (Herbicidal ratio of 70% or higher and lower than 90%) | 5 (Herbicidal ratio of 90% or more (almost completely withered)) | 3 (Herbicidal ratio of 40% or higher and lower than 70%) | 5 (Herbicidal ratio of 90% or more (almost completely withered)) | 4 (Herbicidal ratio of 70% or higher and lower than 90%) | 0 (Herbicidal ratio of 5% or lower (almost no effect)) | 3 (Herbicidal ratio of 40% or higher and lower than 70%) | 3 (Herbicidal ratio of 40% or higher and lower than 70%) | 4 (Herbicidal ratio of 70% or higher and lower than 90%) | 5 (Herbicidal ratio of 90% or more (almost completely withered)) | 5 (Herbicidal ratio of 90% or more (almost completely withered)) | 5 (Herbicidal ratio of 90% or more (almost completely withered)) | 5 (Herbicidal ratio of 90% or more (almost completely withered))
CON=C(C)CC1CC(OC(=O)C(C)Cl)=C(c2c(C)cc(C)cc2C)C1=O (stereo not drawn) [1-042] | 5 (Herbicidal ratio of 90% or more (almost completely withered)) | 4 (Herbicidal ratio of 70% or higher and lower than 90%) | 5 (Herbicidal ratio of 90% or more (almost completely withered)) | 5 (Herbicidal ratio of 90% or more (almost completely withered)) | 5 (Herbicidal ratio of 90% or more (almost completely withered)) | 3 (Herbicidal ratio of 40% or higher and lower than 70%) | 5 (Herbicidal ratio of 90% or more (almost completely withered)) | 0 (Herbicidal ratio of 5% or lower (almost no effect)) | 5 (Herbicidal ratio of 90% or more (almost completely withered)) | 4 (Herbicidal ratio of 70% or higher and lower than 90%) | 0 (Herbicidal ratio of 5% or lower (almost no effect)) | 0 (Herbicidal ratio of 5% or lower (almost no effect)) | 4 (Herbicidal ratio of 70% or higher and lower than 90%) | 4 (Herbicidal ratio of 70% or higher and lower than 90%) | 5 (Herbicidal ratio of 90% or more (almost completely withered)) | 5 (Herbicidal ratio of 90% or more (almost completely withered)) | 5 (Herbicidal ratio of 90% or more (almost completely withered)) | 5 (Herbicidal ratio of 90% or more (almost completely withered))
